# Measured values: US9776990B2, “Isoindolone derivatives” (AbbVie Inc., priority 2012, dated 2017)
# Marks after values point to notes of the source that are not given here.
# Experiments:
# RPMI-8226 = assay: Proliferation panel assay, RPMI-8226; assay type: cell-based; details: Homo sapiens, 120 h; Multiple Myeloma, RPMI-8226, 5 days; read-out: Cellular Proliferation EC50
# Protocol: (§1) The impact of compounds of the Examples on cancer cell proliferation was determined using the breast cancer cell line MX-1 (ATCC) in a 3-day proliferation assay. MX-1 cells were maintained in RPMI supplemented with 10% FBS at 37 C.° and an atmosphere of 5% CO2. For compound testing, MX-1 cells were plated in 96-well black bottom plates at a density of 5000 cells/well in 90 μl of culture media and incubated at 37° overnight to allow cell adhesion and spreading. Compound dilution series were prepared in DMSO via a 3-fold serial dilution from 3 mM to 0.1 μM. […]
# (§2) Luminescence readings from the Cell Titer Glo assay were normalized to the DMSO treated cells and analyzed using the GraphPad Prism software with sigmoidal curve fitting to obtain EC50s. The minimum significant ratio (MSR) was determined to evaluate assay reproducibility (Eastwood et al., (2006) J Biomol Screen, 11: 253-261). The overall MSR was determined to be 2.1 and a moving MSR (last six run MSR overtime) has been <2.
# (§3) The compound of Example 40 was tested for its impact on proliferation of a panel of cancer cell line types (with specific cell lines tested) as set out in (Table 2). […] Cell proliferation data were analyzed as described above in the MX-1 proliferation assay to obtain the EC50 for the compounds reported in Table 2.
# [1] = tested on: OPM-2 human multiple myeloma cancer xenograft; assay: Xenograft tumor growth inhibition assay, OPM-2; assay type: in vivo, mice; details: OPM-2 xenograft
# Protocol: (§4) The effect of the compound of Example 40 to inhibit the growth of Ramos, OPM-2, MX-1, MV4-11, and HT1080 xenograft tumors was evaluated. Briefly, 0.5×10^6 human cancer cells (HT1080), 1×10^6 human cancer cells (Ramos), 5×10^6 human cancer cells (OPM-2, MV4-11) or 1:10 tumor brie (MX-1) (in S-MEM (MEM, Suspension, no Calcium, no Glutamine)) (Life Technologies Corporation) were inoculated subcutaneously into the right hind flank of female SCID or SCID-beige (MV4-11, HT1080) mice (Charles Rivers Labs) on study day 0. Compound was formulated in 2% EtOH, 5% Tween-80, 20% PEG-400, 73% HPMC (Ramos, OPM-2 and MX-1) or 5% DMSO, 5% EtOH, 30% PEG400, 60% Phosal 53 (MV4-11, HT1080). Administration of compound was initiated at the time of size match on day 8 (HT1080), day 17 (MX-1), or day 18 (Ramos, MV4-11, OPM-2). The tumors were measured by a pair of calipers twice a week starting at the time of size match and tumor volumes were calculated according to the formula V=L×W^2/2 (V: volume, mm^3; L: length, mm. W: width, m) Tumor volume was measured for the duration of the experiment until the mean tumor volume in each group reached an endpoint of >1000 mm^3.
# NCI-H929 = assay: Proliferation panel assay, NCI-H929; assay type: cell-based; details: Homo sapiens, 120 h; Multiple Myeloma, NCI-H929, 5 days; read-out: Cellular Proliferation EC50
# Protocol: as §1, §2, §3
# MDAMB453 = assay: Proliferation panel assay, MDAMB453; assay type: cell-based; details: Homo sapiens, MDA-MB-453, 120 h; Breast, MDAMB453, 5 days; read-out: Cellular Proliferation EC50
# Protocol: as §1, §2, §3
# [2] = tested on: MV4-11 human AML xenograft; assay: Xenograft tumor growth inhibition assay, MV4-11; assay type: in vivo, mice; details: MV4-11 xenograft
# Protocol: as §4
# Raji = assay: Proliferation panel assay, Raji; assay type: cell-based; details: Homo sapiens, 120 h, Burkitt lymphoma, 5 days, read-out: Cellular Proliferation EC50
# Protocol: as §1, §2, §3
# PC3M = assay: Proliferation panel assay, PC3M; assay type: cell-based; details: Homo sapiens, PC-3M, 120 h, Prostate, 5 days, read-out: Cellular Proliferation EC50
# Protocol: as §1, §2, §3
# HPAC = assay: Proliferation panel assay, HPAC; assay type: cell-based; details: Homo sapiens, 120 h, Pancreas, 5 days, read-out: Cellular Proliferation EC50
# Protocol: as §1, §2, §3
# HepG2 = assay: Proliferation panel assay, HepG2; assay type: cell-based; details: Homo sapiens, 120 h; Hepatocellular, HepG2, 5 days; read-out: Cellular Proliferation EC50
# Protocol: as §1, §2, §3
# [3] = tested on: MX-1 human breast cancer xenograft; assay: Xenograft tumor growth inhibition assay, MX-1; assay type: in vivo, mice; details: MX-1 xenograft; for % TGI (tumor growth inhibition): QDx14, based on day 38; for % TGD (tumor growth delay): QDx14, endpoint 1000 mm^3
# Protocol: as §4
# 786-0 = assay: Proliferation panel assay, 786-0; assay type: cell-based; details: Homo sapiens, 120 h; RCC, 786-0, 5 days; read-out: Cellular Proliferation EC50
# Protocol: as §1, §2, §3
# D54MG = assay: Proliferation panel assay, D54MG; assay type: cell-based; details: 120 h, Glioblastoma, 5 days, read-out: Cellular Proliferation EC50
# Protocol: as §1, §2, §3
# Ly18 = assay: Proliferation panel assay, Ly18; assay type: cell-based; details: 120 h; NHL, Ly18, 5 days; read-out: Cellular Proliferation EC50
# Protocol: as §1, §2, §3
# H1299 = assay: Proliferation panel assay, H1299; assay type: cell-based; details: Homo sapiens, NCI-H1299, 120 h; NSCLC, H1299, 5 days; read-out: Cellular Proliferation EC50
# Protocol: as §1, §2, §3
smiles,measurement,setting,value
"Cc1[nH]c(-c2cc(NS(C)(=O)=O)ccc2Oc2ccccc2)c2c1C(=O)CCC2 [Example 40, N-[3-(3-methyl-4-oxo-4,5,6,7-tetrahydro-2H-isoindol-1-yl)-4-phenoxyphenyl]methanesulfonamide]",EC50,RPMI-8226,94 nM
same,% TGI (tumor growth inhibition),"[1]; 10 mg/kg/day PO, BIDx14, based on day 31",11%
same,% TGD (tumor growth delay),"[1]; 10 mg/kg/day PO, BIDx14, endpoint 1000 mm^3",25%
same,% TGI (tumor growth inhibition),"[1]; 10 mg/kg/day PO, QDx14, based on day 31",16%
same,% TGD (tumor growth delay),"[1]; 10 mg/kg/day PO, QDx14, endpoint 1000 mm^3",25%
same,% TGI (tumor growth inhibition),"[1]; 30 mg/kg/day PO, BIDx14, based on day 31",31* %
same,% TGD (tumor growth delay),"[1]; 30 mg/kg/day PO, BIDx14, endpoint 1000 mm^3",88* %
same,% TGI (tumor growth inhibition),"[1]; 30 mg/kg/day PO, QDx14, based on day 31",27* %
same,% TGD (tumor growth delay),"[1]; 30 mg/kg/day PO, QDx14, endpoint 1000 mm^3",63%
same,% TGI (tumor growth inhibition),"[1]; 100 mg/kg/day PO, BIDx14, based on day 31",43** %
same,% TGD (tumor growth delay),"[1]; 100 mg/kg/day PO, BIDx14, endpoint 1000 mm^3",175*** %
same,% TGI (tumor growth inhibition),"[1]; 100 mg/kg/day PO, QDx14, based on day 31",41** %
same,% TGD (tumor growth delay),"[1]; 100 mg/kg/day PO, QDx14, endpoint 1000 mm^3",88*** %
same,EC50,NCI-H929,41 nM
same,EC50,MDAMB453,220 nM
same,mortality,"[2]; 25 mg/kg/day PO, BID x 14",^b10% mortality.
same,% TGI (tumor growth inhibition),"[2]; 25 mg/kg/day PO, BID x 14, based on day 31",14^b %
same,mortality,"[2]; 50 mg/kg/day PO, BID x 14",^c30% mortality
same,% TGI (tumor growth inhibition),"[2]; 50 mg/kg/day PO, BID x 14, based on day 31",42^c** %
same,mortality,"[2]; 100 mg/kg/day PO, BID 5 on, 3 off x 2",^d40% mortality
same,% TGI (tumor growth inhibition),"[2]; 100 mg/kg/day PO, BID 5 on, 3 off x 2, based on day 31",67^d** %
same,EC50,Raji,36 nM
same,EC50,PC3M,410 nM
same,EC50,HPAC,290 nM
same,EC50,HepG2,320 nM
same,% TGI (tumor growth inhibition),"[3]; group 2, 100 mg/kg/day PO",78*** %
same,% TGD (tumor growth delay),"[3]; group 2, 100 mg/kg/day PO",29*** %
same,% TGI (tumor growth inhibition),"[3]; group 3, 30 mg/kg/day PO",48*** %
same,% TGD (tumor growth delay),"[3]; group 3, 30 mg/kg/day PO",22*** %
same,% TGI (tumor growth inhibition),"[3]; group 4, 10 mg/kg/day PO",18%
same,% TGD (tumor growth delay),"[3]; group 4, 10 mg/kg/day PO",17%
same,% TGI (tumor growth inhibition),"[3]; group 5, 100 mg/kg/day PO",80*** %
same,% TGD (tumor growth delay),"[3]; group 5, 100 mg/kg/day PO",28*** %
same,% TGI (tumor growth inhibition),"[3]; group 6, 20 mg/kg/day PO",30* %
same,% TGD (tumor growth delay),"[3]; group 6, 20 mg/kg/day PO",19* %
same,EC50,786-0,139 nM
same,EC50,D54MG,210 nM
same,EC50,Ly18,370 nM
same,EC50,H1299,360 nM
